Laboratory results: patent EP0655506B1 (priority 1994, dated 1995)

Experiments:
Test in all cases: Gel electrophoresis-based rate of incorporation of dideoxynucleotides relative to deoxynucleotides, 1:1 ratio of dNTPs to ddNTPs (Example 6)
[1] = target: T1, T7 DNA polymerase (28 amino acid deletion in the exonuclease domain, complexed with thioredoxin), tyrosine at residue 526 (WT) (Escherichia phage T7, UniProt P00581, DEL118-145); format: biochemical, bacteriophage T7; details: for D, discrimination factor (ratio of the use of a specific dNTP to the use of the comparable ddNTP at equal concentrations): 100 µM 4dNTPs and 100 µM of one ddNTP, 5 mM MgCl2, 37 °C; for Incorporation Rate Ratios (dN/ddN): stated to be the absolute ratios obtained in Example 6 (1:1 dNTPs to ddNTPs)
T1 construct: made in house; host or cells: strain that produces E. coli thioredoxin, lac promoter
T1 sequence (P00581 other isoform, or with tags, fused parts or gaps DEL118-145): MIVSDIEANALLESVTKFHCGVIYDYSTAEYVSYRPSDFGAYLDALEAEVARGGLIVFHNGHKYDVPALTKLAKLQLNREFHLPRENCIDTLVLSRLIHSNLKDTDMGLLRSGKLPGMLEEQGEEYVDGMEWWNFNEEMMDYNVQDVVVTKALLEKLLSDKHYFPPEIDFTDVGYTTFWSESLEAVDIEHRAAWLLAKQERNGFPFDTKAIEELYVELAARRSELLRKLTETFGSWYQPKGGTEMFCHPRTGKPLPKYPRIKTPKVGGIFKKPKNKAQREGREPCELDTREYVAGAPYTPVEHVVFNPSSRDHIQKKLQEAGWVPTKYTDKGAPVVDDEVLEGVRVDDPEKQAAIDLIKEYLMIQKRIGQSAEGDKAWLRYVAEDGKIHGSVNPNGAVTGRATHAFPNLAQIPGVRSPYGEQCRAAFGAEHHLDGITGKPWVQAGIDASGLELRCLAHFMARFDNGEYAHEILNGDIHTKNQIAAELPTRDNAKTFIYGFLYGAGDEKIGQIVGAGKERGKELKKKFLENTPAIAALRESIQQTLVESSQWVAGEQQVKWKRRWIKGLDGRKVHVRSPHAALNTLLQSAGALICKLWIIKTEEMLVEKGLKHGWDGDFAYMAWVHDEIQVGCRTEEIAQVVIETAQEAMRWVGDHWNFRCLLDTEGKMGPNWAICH
T1 sequence (P0AA25 2-109, stated change not applied, further chain): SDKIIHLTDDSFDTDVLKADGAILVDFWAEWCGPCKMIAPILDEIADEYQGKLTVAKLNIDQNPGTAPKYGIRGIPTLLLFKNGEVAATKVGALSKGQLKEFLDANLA
Excerpt: (§1) The primary application of this test is to determine the absolute ratio of incorporation of a ddNMP to a dNMP for a DNA polymerase that efficiently incorporates dideoxynucleotides, such as T7 DNA polymerase, E. coli DNA polymerase I mutant F762Y or Taq DNA polymerase mutant F667Y. It can also indicate the level of discrimination against ddNTPs of any DNA polymerase; however, for DNA polymerases that discriminate strongly against ddNTPs, such as T7 DNA polymerase mutant Y526F, E. coli DNA polymerase I or Taq DNA polymerase, higher ratios of ddNTP to dNTP are necessary to determine precisely their level of discrimination, which is described in detail in Example 7.
(§2) DNA synthesis reactions are carried out on the ^32P-end labeled 40 mer-M 13 mGP1-2 DNA template complex prepared as described in Example 3. Reaction conditions are used that are optimum for the DNA polymerase being tested with regard to buffer, pH, salts, and temperature of the reaction. A concentration of DNA polymerase is chosen whereby most of the primers are extended in a 10 min reaction and are terminated by the incorporation of a dideoxynucleotide. The reaction mixture contains 100 µM 4dNTPs and 100 µM of one of the four ddNTPs.
(§3) We used this test to compare the ability of six DNA polymerases to incorporate each of the four ddNMPs. The DNA polymerases tested were (1) T7 DNA polymerase with a 28 amino acid deletion in the exonuclease domain and complexed in a one-to-one ratio with thioredoxin (Tabor and Richardson 264 J. Biol. Chem. 6447, 1989) (referred to here as "T7 DNA polymerase"), (2) The large fragment of E. coli DNA polymerase I, commonly called the Klenow fragment (referred to here as "E. coli DNA polymerase I"), (3) Unmodified DNA polymerase from Thermus aquaticus (referred to here as "Taq DNA polymerase"), (4) T7 DNA polymerase as described above in which the tyrosine at residue 526 has been changed to a phenylalanine (referred to here as "T7 DNA polymerase Y526F"), (5) E. coli DNA polymerase I as described above in which the phenylalanine at residue 762 has been changed to a tyrosine (referred to here as "E. coli DNA polymerase I F762Y"), and (6) Taq DNA polymerase as described above in which the phenylalanine at residue 667 has been changed to a tyrosine (referred to here as "Taq DNA polymerase F667Y").
(§4) The reaction mixtures also contained 10 ng of yeast inorganic pyrophosphatase to inhibit pyrophosphorolysis that could otherwise increase the apparent discrimination by the DNA polymerase (Tabor and Richardson 265 j. Biol. Chem. 8322, 1990). The reactions were initiated by the addition of 2 µl of each DNA polymerase, diluted in 20 mM TrisHCl, pH 7.5, 10 mM 2-mercaptoethanol and 0.05% bovine serum albumin to a concentration of approximately 0.025 units/µl. The concentration of each DNA polymerase was sufficient to extend most of the labeled primers by more than 500 nucleotides in the absence of ddNTPs in a 15 min reaction. The reaction mixtures were incubated for 15 min at either 37 °C (T7 DNA polymerase, T7 DNA polymerase Y526F, E. coli DNA polymerase I, and E. coli DNA polymerase F762Y) or 70 °C (Taq DNA polymerase and Taq DNA polymerase F667Y). The reactions were terminated by the addition of 10 µl 90% formamide, 20 mM EDTA, 0.05% bromphenol blue. Each sample was heated at 90°C for 2 min immediately prior to loading 6 µl of each sample onto a gel consisting of 8% polyacrylamide, 0.4% N,N'-methylenebisacrylamide, 7 M urea in 100 mM Trisborate, pH 8.3, 1 mM EDTA. Electrophoresis was at 2000 Volts for 90 min (until the bromphenol blue had just run off the bottom of the gel). After electrophoresis, the gel was dried under vacuum, and autoradiographed. After autoradiography, the distribution of radioactively labeled fragments was determined by Phosphorimager analysis (Molecular Dynamics). […]

[2] = target: T2, E. coli DNA polymerase I (Klenow fragment) F762Y (Escherichia coli, UniProt P00582, F762Y); format: biochemical; details: for D, discrimination factor (ratio of the use of a specific dNTP to the use of the comparable ddNTP at equal concentrations): 100 µM 4dNTPs and 100 µM of one ddNTP, 5 mM MgCl2, 37 °C; for Incorporation Rate Ratios (dN/ddN): absolute ratios obtained in Example 6 (1:1 dNTPs to ddNTPs)
T2 construct: The large fragment of E. coli DNA polymerase I, commonly called the Klenow fragment; made in house; T7 RNA polymerase promoter; purified by ion exchange chromatography
T2 sequence (P00582 324-928 F762Y): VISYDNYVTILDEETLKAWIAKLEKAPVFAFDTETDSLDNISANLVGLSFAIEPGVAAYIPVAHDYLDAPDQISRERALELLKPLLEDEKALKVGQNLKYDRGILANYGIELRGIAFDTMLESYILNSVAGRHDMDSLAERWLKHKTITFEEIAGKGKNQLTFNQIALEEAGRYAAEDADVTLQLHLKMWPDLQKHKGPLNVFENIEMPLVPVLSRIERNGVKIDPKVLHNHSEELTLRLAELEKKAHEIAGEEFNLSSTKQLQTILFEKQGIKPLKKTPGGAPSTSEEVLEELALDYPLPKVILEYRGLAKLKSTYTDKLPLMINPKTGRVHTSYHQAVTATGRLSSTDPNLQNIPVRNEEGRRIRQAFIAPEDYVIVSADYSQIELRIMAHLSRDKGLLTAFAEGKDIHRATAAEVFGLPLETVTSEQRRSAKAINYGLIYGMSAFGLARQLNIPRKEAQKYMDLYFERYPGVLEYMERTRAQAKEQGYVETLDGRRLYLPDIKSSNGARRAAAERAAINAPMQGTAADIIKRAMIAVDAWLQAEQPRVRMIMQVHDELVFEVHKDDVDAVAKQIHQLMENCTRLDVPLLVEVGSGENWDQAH
Excerpt: as §1, §2, §3, §4

Taq DNA polymerase F667Y = target: T3, Taq DNA polymerase F667Y (Thermus aquaticus, UniProt P19821, F667Y); format: biochemical; details: for D, discrimination factor (ratio of the use of a specific dNTP to the use of the comparable ddNTP at equal concentrations): 100 µM 4dNTPs and 100 µM of one ddNTP, 5 mM MgCl2, 70 °C; for Incorporation Rate Ratios (dN/ddN): absolute ratios obtained in Example 6 (1:1 dNTPs to ddNTPs)
T3 construct: to the gene that produces the full length Taq DNA polymerase; made in house
T3 sequence (P19821 whole entry F667Y): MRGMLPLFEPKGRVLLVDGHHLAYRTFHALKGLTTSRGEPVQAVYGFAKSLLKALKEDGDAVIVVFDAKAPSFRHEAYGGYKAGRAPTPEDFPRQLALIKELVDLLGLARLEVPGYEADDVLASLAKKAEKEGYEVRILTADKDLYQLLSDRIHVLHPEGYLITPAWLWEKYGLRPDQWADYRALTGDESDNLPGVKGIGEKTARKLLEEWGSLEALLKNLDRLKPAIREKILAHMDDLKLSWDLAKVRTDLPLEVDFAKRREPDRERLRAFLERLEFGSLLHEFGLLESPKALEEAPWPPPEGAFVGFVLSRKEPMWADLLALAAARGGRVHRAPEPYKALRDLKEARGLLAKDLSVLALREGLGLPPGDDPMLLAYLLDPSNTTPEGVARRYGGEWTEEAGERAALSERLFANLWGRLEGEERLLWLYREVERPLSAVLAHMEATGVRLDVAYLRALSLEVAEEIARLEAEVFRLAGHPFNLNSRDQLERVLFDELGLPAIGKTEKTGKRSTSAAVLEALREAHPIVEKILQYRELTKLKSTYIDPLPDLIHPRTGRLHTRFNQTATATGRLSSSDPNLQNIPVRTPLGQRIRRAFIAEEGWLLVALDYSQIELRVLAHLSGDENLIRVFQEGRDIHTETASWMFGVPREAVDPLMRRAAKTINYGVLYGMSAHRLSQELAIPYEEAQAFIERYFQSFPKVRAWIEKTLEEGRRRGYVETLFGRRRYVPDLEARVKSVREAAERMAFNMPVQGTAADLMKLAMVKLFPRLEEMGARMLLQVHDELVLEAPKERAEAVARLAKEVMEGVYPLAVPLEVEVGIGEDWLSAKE
Excerpt: as §1, §2, §3, §4

## Cc1cn([C@H]2CC[C@@H](COP(=O)(O)OP(=O)(O)OP(=O)(O)O)O2)c(=O)[nH]c1=O [ddTTP]
[1]
  D, discrimination factor (ratio of the use of a specific dNTP to the use of the comparable ddNTP at equal concentrations): 1.8
  Incorporation Rate Ratios (dN/ddN): 2.8
[2]
  D, discrimination factor (ratio of the use of a specific dNTP to the use of the comparable ddNTP at equal concentrations): 0.54
  Incorporation Rate Ratios (dN/ddN): 0.54
Taq DNA polymerase F667Y
  D, discrimination factor (ratio of the use of a specific dNTP to the use of the comparable ddNTP at equal concentrations): 0.56
  Incorporation Rate Ratios (dN/ddN): 0.56

## Nc1ncnc2c1ncn2[C@H]1CC[C@@H](COP(=O)(O)OP(=O)(O)OP(=O)(O)O)O1 [ddATP]
[1]
  D, discrimination factor (ratio of the use of a specific dNTP to the use of the comparable ddNTP at equal concentrations): 2.3
  Incorporation Rate Ratios (dN/ddN): 3.3
[2]
  D, discrimination factor (ratio of the use of a specific dNTP to the use of the comparable ddNTP at equal concentrations): 0.72
  Incorporation Rate Ratios (dN/ddN): 0.72
Taq DNA polymerase F667Y
  D, discrimination factor (ratio of the use of a specific dNTP to the use of the comparable ddNTP at equal concentrations): 0.59
  Incorporation Rate Ratios (dN/ddN): 0.59

## Nc1nc2c(ncn2[C@H]2CC[C@@H](COP(=O)(O)OP(=O)(O)OP(=O)(O)O)O2)c(=O)[nH]1 [ddGTP]
[1]
  D, discrimination factor (ratio of the use of a specific dNTP to the use of the comparable ddNTP at equal concentrations): 2.2
  Incorporation Rate Ratios (dN/ddN): 3.2
[2]
  D, discrimination factor (ratio of the use of a specific dNTP to the use of the comparable ddNTP at equal concentrations): 0.56
  Incorporation Rate Ratios (dN/ddN): 0.56
Taq DNA polymerase F667Y
  D, discrimination factor (ratio of the use of a specific dNTP to the use of the comparable ddNTP at equal concentrations): 0.45
  Incorporation Rate Ratios (dN/ddN): 0.45

## Nc1ccn([C@H]2CC[C@@H](COP(=O)(O)OP(=O)(O)OP(=O)(O)O)O2)c(=O)n1 [ddCTP]
[1]
  D, discrimination factor (ratio of the use of a specific dNTP to the use of the comparable ddNTP at equal concentrations): 2.7
  Incorporation Rate Ratios (dN/ddN): 3.7
[2]
  D, discrimination factor (ratio of the use of a specific dNTP to the use of the comparable ddNTP at equal concentrations): 0.75
  Incorporation Rate Ratios (dN/ddN): 0.75
Taq DNA polymerase F667Y
  D, discrimination factor (ratio of the use of a specific dNTP to the use of the comparable ddNTP at equal concentrations): 0.32
  Incorporation Rate Ratios (dN/ddN): 0.32
